According to publication PMC5415608, “The Effects of Herbicides Targeting Aromatic and Branched Chain Amino Acid Biosynthesis Support the Presence of Functional Pathways in Broomrape” (Frontiers in Plant Science, 2017):

Tests used:
[1] = test system: T1, ALS (P. aegyptiaca acetolactate synthase); assay: colorimetric acetoin assay (creatine/alpha-naphthol, […] nm), partially purified extract; assay type: biochemical, Phelipanche aegyptiaca; details: flowering shoot enzyme; 167 mM pyruvate, 16.7 mM MgCl2, 1.67 mM TPP, 16.6 μM FAD, pH 7.0, 37°C, 60 min; read-out: ID50 (the source's name)
T1 construct: single gene copy found; predicted 42-residue chloroplast transit peptide

[2] = test system: T2, EPSPS (P. aegyptiaca 5-enolpyruvylshikimate-3-phosphate synthase); assay: colorimetric phosphate release assay ([…] nm), partially purified extract; assay type: biochemical, Phelipanche aegyptiaca; details: callus enzyme; 1 mM shikimate-3-phosphate (natural substrate), 0.1 mM phosphoenolpyruvate, 500 mM MES pH 5.5, 2 mM DTT, 30°C, 15 min; read-out: ID50 (the source's name)
T2 construct: single gene copy found; predicted 64-residue chloroplast transit peptide

[3] = test system: T3, ALS from young tomato leaves; assay: colorimetric acetoin assay (creatine/alpha-naphthol, […] nm), partially purified extract; assay type: biochemical, Solanum lycopersicum; details: young leaf enzyme; 167 mM pyruvate, 16.7 mM MgCl2, 1.67 mM TPP, 16.6 μM FAD, pH 7.0, 37°C, 60 min; read-out: ID50 (the source's name)
T3 construct: gene ALS1; native, partially purified extract of young tomato leaves

| SMILES | IC50 [1] [nM] | IC50 [2] [nM] | IC50 [3] [nM] |
| --- | --- | --- | --- |
| CC(C)C1(C)N=C(c2ncccc2C(=O)O)NC1=O (centres unmarked) [imazapyr] | 11600 ± 1200 | – | – |
| O=C(O)CNCP(=O)(O)O [glyphosate] | – | ~8000 | – |
| CCS(=O)(=O)c1cccnc1S(=O)(=O)NC(=O)Nc1nc(OC)cc(OC)n1 [rimsulfuron] | 110 ± 30 | – | – |
| Cc1cnc(C2=NC(C)(C(C)C)C(=O)N2)c(C(=O)O)c1 (centres unmarked) [imazapic] | 2070 ± 70 | – | ~470 |
